# Measured values as given in ChEMBL document CHEMBL1154702, “Enhancement of the antimalarial activity of ciprofloxacin using a double prodrug/bioorganometallic approach” (J Med Chem, 2009).
# Experiments:
# [1] = tested on: Plasmodium falciparum; test: Antimalarial activity against chloroquine-sensitive Plasmodium falciparum IMT10500 infected in erythrocytes after 48 hrs by [3H]hypoxanthine incorporation assay; type: functional, organism-based
# [2] = tested on: Plasmodium falciparum; test: Antimalarial activity against chloroquine-sensitive Plasmodium falciparum PA infected in erythrocytes after 48 hrs by [3H]hypoxanthine incorporation assay; type: functional, organism-based
# [3] = tested on: Plasmodium falciparum; test: Antimalarial activity against chloroquine-sensitive Plasmodium falciparum IMTL1 infected in erythrocytes after 48 hrs by [3H]hypoxanthine incorporation assay; type: functional, organism-based
# [4] = tested on: Plasmodium falciparum; test: Antimalarial activity against chloroquine-sensitive Plasmodium falciparum FCM29 infected in erythrocytes after 48 hrs by [3H]hypoxanthine incorporation assay; type: functional, organism-based
# [5] = tested on: Plasmodium falciparum; test: Antimalarial activity against chloroquine-sensitive Plasmodium falciparum 3D7 infected in erythrocytes after 96 hrs by [3H]hypoxanthine incorporation assay; type: functional, organism-based
# [6] = tested on: Plasmodium falciparum; test: Antimalarial activity against chloroquine-resistant Plasmodium falciparum W2 infected in erythrocytes after 48 hrs by [3H]hypoxanthine incorporation assay; type: functional, organism-based
# [7] = tested on: Plasmodium falciparum; test: Antimalarial activity against chloroquine-resistant Plasmodium falciparum W2 infected in erythrocytes after 96 hrs by [3H]hypoxanthine incorporation assay; type: functional, organism-based
# [8] = tested on: Plasmodium falciparum; test: Antimalarial activity against chloroquine-sensitive Plasmodium falciparum FCR3 infected in erythrocytes after 48 hrs by [3H]hypoxanthine incorporation assay; type: functional, cell-based; details: FCR-3/Gambia
# [9] = tested on: Plasmodium falciparum; test: Antimalarial activity against chloroquine-sensitive Plasmodium falciparum 3D7 infected in erythrocytes after 48 hrs by [3H]hypoxanthine incorporation assay; type: functional, organism-based
# [10] = tested on: Plasmodium falciparum; test: Antimalarial activity against […] Plasmodium falciparum IMT K2 infected in erythrocytes after 48 hrs by [3H]hypoxanthine incorporation assay; type: functional, organism-based
# [11] = tested on: Plasmodium falciparum; test: Antimalarial activity against chloroquine-sensitive Plasmodium falciparum IMTVo1 infected in erythrocytes after 48 hrs by [3H]hypoxanthine incorporation assay; type: functional, organism-based
# [12] = tested on: Plasmodium falciparum; test: Antimalarial activity against Plasmodium falciparum 3D7; type: functional, organism-based
# [13] = tested on: Plasmodium falciparum; test: Antimalarial activity against Plasmodium falciparum NF54; type: functional, organism-based
# [14] = Cytotoxicity against concanavalin-stimulated BALB/c mouse splenocytes after 72 hrs by resazurin dye reduction method; type: cell-based; details: Splenocyte
# [15] = Therapeutic index, ratio of IC50 for concanavalin-stimulated BALB/c mice (Mus musculus) splenocytes to IC50 for Plasmodium falciparum 3D7; details: read-out: Ratio IC50
# [16] = Therapeutic index, ratio of IC50 for concanavalin-stimulated BALB/c mice (Mus musculus) splenocytes to IC50 for Plasmodium falciparum W2 after 48 hrs; details: read-out: Ratio IC50
IC50 [12],IC50 [13],Compound,IC50 [2],IC50 [3],IC50 [4],IC50 [5],IC50 [6],IC50 [7],IC50 [9],IC50 [10],IC50 [14],also measured
–,–,C[C@H]1c2cccc(O)c2C(=O)C2=C(O)[C@]3(O)C(=O)C(C(N)=O)=C(O)[C@@H](N(C)C)[C@@H]3[C@@H](O)[C@@H]21 [DOXYCYCLINE],12.9 µM,8.4 µM,11.1 µM,1700 nM,10.7 µM,1.2 µM,12 µM,14.9 µM,–,IC50 ([1]; read-out: IC50): 13.3 µM; IC50 ([8]; read-out: IC50): 9.7 µM; IC50 ([11]; read-out: IC50): 9.1 µM
≥ 10 µM,≥ 10 µM,Cc1c(F)c(N2CCNC(C)C2)cc2c1c(=O)c(C(=O)O)cn2C1CC1 (stereo unspecified) [GREPAFLOXACIN],–,–,–,–,–,–,–,–,–,–
≥ 10 µM,≥ 10 µM,COc1c(N2C[C@@H]3CCCN[C@@H]3C2)c(F)cc2c(=O)c(C(=O)O)cn(C3CC3)c12 [MOXIFLOXACIN],–,–,–,–,–,–,–,–,–,–
–,–,CCN(CC)CCCC(C)Nc1ccnc2cc(Cl)ccc12 (stereo unspecified) [CHLOROQUINE],–,–,–,–,–,–,–,–,3.46 µM,–
–,–,C=C[C@H]1CN2CC[C@H]1C[C@H]2[C@H](O)c1ccnc2ccc(OC)cc12 [QUININE],0.571 µM,0.543 µM,0.0058 µM,–,520 µM,456 µM,186 µM,0.0067 µM,–,IC50 ([8]; read-out: IC50): 0.65 µM; IC50 ([11]; read-out: IC50): 0.428 µM
–,–,O=C(O)c1cn(C2CC2)c2cc(N3CCNCC3)c(F)cc2c1=O [CIPROFLOXACIN],45.5 µM,41.3 µM,45.6 µM,10100 nM,119 µM,14.1 µM,45.9 µM,80.8 µM,> 40 µM,IC50 [1]: 74.8 µM; selectivity ratio [15]: > 0.8; selectivity ratio at 48 h [16]: > 0.3; IC50 [8]: 74.3 µM; IC50 [11]: 51.6 µM
–,–,C[C@H]1[C@H](OC(=O)CCC(=O)O)O[C@@H]2O[C@@]3(C)CC[C@H]4[C@H](C)CC[C@@H]1[C@@]24OO3 [ARTESUNATE],0.002 µM,–,–,2000 nM,2.4 µM,2.1 µM,1.7 µM,0.0018 µM,–,–
≥ 10 µM,≥ 10 µM,COc1c(N2CCNC(C)C2)c(F)cc2c(=O)c(C(=O)O)cn(C3CC3)c12 (stereo unspecified) [GATIFLOXACIN],–,–,–,–,–,–,–,–,–,–

Compound,IC50 [12],IC50 [13],IC50 [2],IC50 [3],IC50 [4],IC50 [5],IC50 [6],IC50 [7],IC50 [9],IC50 [10],IC50 [14],also measured
CCOC(=O)c1cn(C2CC2)c2cc(N3CCNCC3)c(F)cc2c1=O [CIPROFLOXACIN ETHYL ESTER],≥ 10 µM,≥ 10 µM,–,–,–,1600 nM,3.9 µM,3.1 µM,3.1 µM,–,> 40 µM,selectivity ratio [15]: > 12.9; selectivity ratio at 48 h [16]: > 10.2
